Test results: patent publication US7754772B2, “Nitrosated nonsteroidal antiinflammatory compounds, compositions and methods of use” (NicOx, S.A., priority 2002, dated 2010)
Read-outs that look alike come from different tables or passages of the source.

Legend:
[1] = tested on: Male Sprague Dawley rats, gastric hemorrhagic lesion; assay: rat gastric lesion test; conditions: rat fasted 24 hours, oral gavage, lesion score (summed length, mm) three hours after dosing; ratio relative to parent NSAID (Naproxen = 1)
Experimental: (§1) Male Sprague Dawley rats (Charles River Laboratories, Wilmington, Mass.) weighing 230-250 g were used for the experiments. The rats were housed with laboratory chow and water ad libitum prior to the study. The rats were fasted for 24 hours with free access to water and then dosed by oral gavage with vehicle or with test compounds given at a volume of 0.5 mL/100 g. […] Rats were euthanized by CO2 three hours after dosing. The stomachs were dissected along the greater curvature, washed with a directed stream of 0.9% saline and pinned open on a sylgard based petri dish for examination of the hemorrhagic lesion. Gastric lesion score was expressed in mm and calculated by summing the length of each lesion.

[2] = tested on: Male Sprague-Dawley rats, carrageenan paw edema; assay: rat paw edema test (carrageenan), antiinflammatory activity; type: in vivo; conditions: oral gavage one hour prior to subplantar carrageenan, paw volume three hours later, expressed as ratio (Vehicle = 1)
Experimental: The rat paw edema test was used to measure the antiinflammatory activity. The rat paw edema test was performed according to the method of Winter et al, Proc. Soc. […] Male Sprague-Dawley rats (250-275 g) were fasted overnight and dosed by oral gavage with vehicle or suspensions of compound one hour prior to the subplantar injection of 50 μl of 1% suspension of carrageenan. Three hours later, the paw volume was measured and compared with the initial volume measured immediately after carrageenan injection.

[3] = tested on: Male Sprague Dawley rats, gastric hemorrhagic lesion; conditions: rat, in vivo, po
Experimental: as §1

Compound	melting point	Relative Activity Gastric Lesion [1]	Relative Activity Antiinflammation [2]	Relative Activity Gastric Lesion [3]
COc1ccc2cc([C@H](C)C(=O)OCCSCCO[N+](=O)[O-])ccc2c1 [Example 1, 2-(2-(Nitrooxy)ethylthio)ethyl (2S)-2-(6-methoxy(2-naphthyl))propanoate]	33 to 37 °C	0.32	–	–
COc1ccc2cc([C@H](C)C(=O)OCCS(=O)(=O)CCO[N+](=O)[O-])ccc2c1 [Example 2, 2-((2-(Nitrooxy)ethyl)sulfonyl)ethyl (2S)-2-(6-methoxy(2-naphthyl)) propanoate]	–	0.11	0.49	–
COc1ccc2cc(C(C)C(=O)OCCN(CCO[N+](=O)[O-])c3ccc([N+](=O)[O-])cc3)ccc2c1 (stereo not drawn) [Example 4, 2-((2-(Nitrooxy)ethyl)4-nitrophenyl)amino)ethyl 2-(6-methoxy-2-naphthyl) propanoate]	–	–	0.92	0.04
COc1ccc2cc([C@H](C)C(=O)OCC3(CO[N+](=O)[O-])COCOC3)ccc2c1 [Example 9]	–	0.02	0.69	–
COc1ccc2cc([C@H](C)C(=O)OCC(=O)COC(=O)c3ccc(CO[N+](=O)[O-])cc3)ccc2c1 [Example 11, 3-(4-((Nitrooxy)methyl)phenylcarbonyloxy)-2-oxopropyl (2S)-2-(6-methoxy(2-naphthyl))propanoate]	105 to 107 °C	–	–	–
COc1ccc2cc([C@H](C)C(=O)OCC(C)(CO[N+](=O)[O-])[N+](=O)[O-])ccc2c1 (stereo partly drawn) [Example 12, 2-Methyl-2-nitro-3-(nitrooxy)propyl(2S)-2-(6-methoxy(2-naphthyl)) propanoate]	–	0.18	0.47	–
COc1ccc2cc([C@H](C)C(=O)OCC(CO[N+](=O)[O-])(CO[N+](=O)[O-])[N+](=O)[O-])ccc2c1 [Example 13, 2-Nitro-3-(nitrooxy)-2-((nitrooxy)methyl)propyl (2S)-2-(6-methoxy(2-naphthyl))propanoate]	69 to 71 °C	0.55	–	–
COc1ccc2cc([C@H](C)C(=O)OCCOC(=O)NCCO[N+](=O)[O-])ccc2c1 [Example 14, 2-(N-(2-(Nitrooxy)ethyl)carbamoyloxy)ethyl (2S)-2-(6-methoxy(2-naphthyl))propanoate]	56 to 57 °C	0.15	–	–
COc1ccc2cc([C@H](C)C(=O)OCC(=O)N(C)CCO[N+](=O)[O-])ccc2c1 [Example 17, (N-Methyl-N-(2-(nitrooxy)ethyl)carbamoyl)methyl (2S)-2-(6-methoxy(2-naphthyl))propanoate]	80 to 81 °C	–	–	–
CCN(CCO[N+](=O)[O-])C(=O)COC(=O)[C@@H](C)c1ccc2cc(OC)ccc2c1 [Example 18, (N-Ethyl-N-(2-(nitrooxy)ethyl)carbamoyl)methyl (2S)-2-(6-methoxy(2-naphthyl))propanoate]	60 to 61 °C	0.25	–	–
COc1ccc2cc([C@H](C)C(=O)OCC(=O)N(C)CC(=O)OCCO[N+](=O)[O-])ccc2c1 [Example 20, (N-Methyl-N-(((2-(nitrooxy)ethyl)oxycarbonyl)methyl)carbamoyl)methyl (2S)-2-(6-methoxy(2-naphthyl))propanoate]	71 to 73 °C	0.03	–	–
COc1ccc2cc([C@H](C)C(=O)OCC(=O)N(C)CC(=O)OCCCO[N+](=O)[O-])ccc2c1 [Example 21, (N-Methyl-N-(((3-(nitrooxy)propyl)oxycarbonyl)methyl)carbamoyl)methyl (2S)-2-(6-methoxy(2-naphthyl))propanoate]	41 to 43 °C	0.19	–	–
COc1ccc2cc([C@H](C)C(=O)OCC(=O)N(C)CC(=O)NCCO[N+](=O)[O-])ccc2c1 [Example 22, (N-Methyl-N-((N-(2-(nitrooxy)ethyl)carbamoyl)methyl)carbamoyl)methyl (2S)-2-(6-methoxy(2-naphthyl))propanoate]	79 to 81 °C	–	–	–
COc1ccc2cc(C(C)C(=O)OCC(=O)OCCO[N+](=O)[O-])ccc2c1 (stereo not drawn) [Example 23, ((2-(Nitrooxy)ethyl)oxycarbonyl)methyl 2-(6-methoxy-2-naphthyl)propanoate]	44 to 45 °C	–	–	–
COc1ccc2cc(C(C)C(=O)OCC(=O)NCCCO[N+](=O)[O-])ccc2c1 (stereo not drawn) [Example 24, (N-(3-(Nitrooxy)propyl)carbamoyl)methyl 2-(6-methoxy-2-naphthyl)propanoate]	51 to 53 °C	–	–	–
COc1ccc2cc([C@H](C)C(=O)OCC(=O)O[C@@H]3CO[C@H]4[C@H]3OC[C@H]4O[N+](=O)[O-])ccc2c1 [Example 26, (1S,5S,2R,6R)-6-(Nitrooxy)-4,8-dioxabicyclo(3.3.0)oct-2-yl)oxycarbonyl) methyl (2S)-2-(6-methoxy (2-naphthyl)) propanoate]	–	0.07	0.75	–

Compound	melting point	Relative Activity Gastric Lesion [1]	Relative Activity Antiinflammation [2]	Relative Activity Gastric Lesion [3]
COc1ccc2cc([C@H](C)C(=O)OC[C@@H](CO[N+](=O)[O-])O[N+](=O)[O-])ccc2c1 [Example 27c, (2S)-2,3-Bis(nitrooxy)propyl (2S)-2-(6-methoxy(2-naphthyl))propanoate]	–	0.20	–	–
COc1ccc2cc([C@H](C)C(=O)OC[C@@H](O)CO[N+](=O)[O-])ccc2c1 [Example 28, (2R)-2-hydroxy-3-(nitrooxy)propyl (2S)-2-(6-methoxy(2-naphthyl)) propanoate]	–	–	0.57	–
COc1ccc2cc([C@H](C)C(=O)OCC(=O)COC(=O)Cc3ccc(CO[N+](=O)[O-])cc3)ccc2c1 [Example 30, 3-(2-(4-((Nitrooxy)methyl)phenyl)acetyloxy)-2-oxopropyl (2S)-2-(6-methoxy(2-naphthyl))propanoate]	92 to 95 °C	–	–	–
COc1ccc2cc([C@H](C)C(=O)Oc3ccc(C(=O)OCCO[N+](=O)[O-])cc3)ccc2c1 [Example 32, 4-((2-(Nitrooxy)ethyl)oxycarbonyl)phenyl (2S)-2-(6-methoxy(2-naphthyl))propanoate]	–	0.06	–	–
COc1ccc2cc([C@H](C)C(=O)OCC(=O)N(C)CCCO[N+](=O)[O-])ccc2c1 [Example 34, (N-methyl-N-(3-(nitrooxy)propyl)carbamoyl)methyl (2S)-2-(6-methoxy(2-naphthyl))propanoate]	104 to 105 °C	0.02	–	–
COc1ccc2cc([C@H](C)C(=O)NOCC(=O)N3CCC(CO[N+](=O)[O-])CC3)ccc2c1 [Example 35, (2S)-2-(6-Methoxy(2-naphthyl))-N-(2-(4-((nitrooxy)methyl)piperidyl)-2-oxoethoxy)propanamide]	–	–	0.06	–
COc1ccc2cc([C@H](C)C(=O)OCCOc3ccc(OCCO[N+](=O)[O-])cc3)ccc2c1 [Example 39, 2-(4-(2-(Nitrooxy)ethoxy)phenoxy)ethyl (2S)-2-(6-methoxy(2-naphthyl))propanoate]	67 to 69 °C	0.04	–	–
COc1ccc2cc([C@H](C)C(=O)OCCOC(=O)C(=O)OCCCO[N+](=O)[O-])ccc2c1 [Example 40, 2-((2S)-2-(6-Methoxy(2-naphthyl))propanoyloxy)ethyl 3-(nitrooxy)-propyl ethane-1,2-dioate]	55 to 58 °C	–	–	–
COc1ccc2cc([C@H](C)C(=O)NNC(=O)CCCO[N+](=O)[O-])ccc2c1 [Example 41, N-((2S)-2-(6-Methoxy(2-naphthyl))propanoylamino)-4 (nitrooxy)butanamide]	117 to 119 °C	–	–	–
COc1ccc2cc([C@H](C)C(=O)OCCN(C)C(=O)c3ccc(CO[N+](=O)[O-])cc3)ccc2c1 [Example 45, 2-(N-Methyl(4-((nitrooxy)methyl)phenyl)carbonylamino)ethyl (2S)-2-(6-methoxy(2-naphthyl))propanoate]	108 to 115 °C	–	–	–
COc1ccc2c(c1)c(CC(=O)O[C@H]1CO[C@H]3[C@H]1OC[C@H]3O[N+](=O)[O-])c(C)n2C(=O)c1ccc(Cl)cc1 [Example 46, (1S,2S,5S,6R)-6-(Nitrooxy)-4,8-dioxabicyclo(3.3.0)oct-2-yl 2-(1-((4 chlorophenyl)carbonyl)-5-methoxy-2-methylindol-3-yl)acetate]	159 to 160 °C	–	–	–
COc1ccc2cc([C@H](C)C(=O)OCCN(CCO[N+](=O)[O-])S(=O)(=O)c3ccc(C)cc3)ccc2c1 [Example 48, 2-(((4-Methylphenyl)sulfonyl)(2-(nitrooxy)ethyl)amino)ethyl (2S)-2-(6-methoxy(2-naphthyl))propanoate]	92 to 95 °C	–	–	–
COc1ccc2cc([C@H](C)C(=O)SCCCCO[N+](=O)[O-])ccc2c1 [Example 54, (2S)-2-(6-methoxy(2-naphthyl))-1-(4-(nitrooxy)butylthio)propan-1-one]	30 to 35 °C	–	–	–
COc1ccc2c(c1)c(CC(=O)OCC(=O)NCCO[N+](=O)[O-])c(C)n2C(=O)c1ccc(Cl)cc1 [Example 56, (N-(2-(Nitrooxy)ethyl)carbamoyl)methyl 2-(1-((4-chlorophenyl)carbonyl)-5-methoxy-2-methylindol-3-yl)acetate]	128 to 129 °C	–	–	–
O=C(COC(=O)Cc1ccccc1Nc1c(Cl)cccc1Cl)NCCO[N+](=O)[O-] [Example 57, (N-(2-(Nitrooxy)ethyl)carbamoyl)methyl 2-(2-((2,6-dichlorophenyl)amino)phenyl)acetate]	81 to 83 °C	–	–	–
COc1ccc2cc([C@H](C)C(=O)O)ccc2c1 [Naproxen, (2S)-2-(6-methoxy(2-naphthyl))propanoic acid, reference compound]	–	1	–	–
